For data set [1], the system named is PAF-acetylhydrolase. Kind of data set: Determination of PAF-acetylhydrolase activity in diluted human serum (remaining PAF read by platelet aggregation). The note with it: human sera diluted 1 in 100 with PBS, 27 hours at 25° C. Type of data set: biochemical. The method, then:
(§1) Sera were diluted 1 in 100 in either PBS or 0.1% "Tween" in PBS (v/v). Diluted acid-treated sera were prepared by mixing sera (1 vol.) with 0.1M citrate buffer pH 3.0 (2 vol.), and then 15 minutes later with PBS ([…].).
(§2) The solution (50μl) was then tested for platelet aggregation activity at 37° C. in a Payton dual channel aggregometer using human platelet-rich plasma (500 μl).

Data set [2] relates to PAF-acetylhydrolase. As to the kind of experiment: Determination of PAF-acetylhydrolase activity in diluted rabbit serum (remaining PAF read by platelet aggregation). Type of data set: biochemical. The note with it: rabbit sera diluted 1 in 100 with PBS, 27 hours at 25° C. The method, then:
as §1, §2

Another data set concerns PAF-antibodies. Kind of data set: Competition assay of test substance against ^3 H-PAF for binding to PAF-antibodies. Further details: species or system rabbit. The settings on record: ^3 H-PAF 22,676 cpm. On the procedure:
The resulting mixture was centrifuged, washed twice with phosphate buffered saline containing 0.1% "Tween" 20, centrifuged and the sediment transferred in water (200 μl) to the liquid scintillant "Aquasol" (3 ml) and counted in a liquid scintillation counter.

As to “1-O-alkyl-2-O-acetyl-sn-glycero-3-phosphocholine [PAF]”, the “stability of PAF in serum” value in the data set on PAF-acetylhydrolase [1] and in the data set on PAF-acetylhydrolase [2] was “destroyed” in each case. For the same compound, the “ASSAY COUNT” value with PAF-antibodies (test substance 0.5 ng) is given as 2,561 cpm; with PAF-antibodies (test substance 5 ng), 2,316 cpm; in the data set with PAF-antibodies (test substance 50 ng), 1,602 cpm; in the data set on PAF-antibodies (test substance 500 ng) it was 598 cpm; in the data set on PAF-antibodies (test substance 5,000 ng), 228 cpm. In addition, the ASSAY/CONTROL with PAF-antibodies (test substance 0.5 ng) worked out at 95.2%; with PAF-antibodies (test substance 5 ng), 85.7%; with PAF-antibodies (test substance 50 ng) it was 57.8%; in the data set with PAF-antibodies (test substance 500 ng), 18.6%; in the data set with PAF-antibodies (test substance 5,000 ng), 4.1%.

Take lyso-lecithin: in the data set with PAF-antibodies (test substance 500 ng), the “ASSAY COUNT” value is 2,668 cpm and the ASSAY/CONTROL worked out at 99.4%. Moreover, in the data set with PAF-antibodies (test substance 5,000 ng), the “ASSAY COUNT” value was 2,658 cpm and the ASSAY/CONTROL is 99.0%.

Turning to `CCCCCCCCCCCCCCCCOC[C@@H](O)COP(=O)([O-])OCC[N+](C)(C)C` [lyso-PAF], the entries for the “ASSAY COUNT” value in the data set on PAF-antibodies (test substance 580 ng) and in the data set with PAF-antibodies (test substance 5,800 ng) were 2,744 cpm and 2,746 cpm, respectively.

On to lecithin, for which the “ASSAY COUNT” value in the data set on PAF-antibodies (test substance 500 ng) is reported as 2,545 cpm; in the data set with PAF-antibodies (test substance 5,000 ng), 2,994 cpm. In the data set with PAF-antibodies (test substance 500 ng), this compound came in with an ASSAY/CONTROL of 99.6%.

(Values after patent publication US5061626A, “Antigenic anarogues of platelet activating factor” (University of Sydney, priority 1986, dated 1991).)
